In PubChem BioAssay (NCI):
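Five compound concentrations were applied to cells in 96-well plates for 48 hours; endpoints were derived by simple linear interpolation of the resulting dose-response curve. TGI: total growth inhibition.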

How the values were obtained:
Test in all cases: inhibition of tumour cell growth, NCI panel, 48 h
K-562 leukemia = tested on: K-562 leukemia
IGROV1 ovarian = tested on: IGROV1 ovarian
HCT-116 colon = tested on: HCT-116 colon
CCRF-CEM leukemia = tested on: CCRF-CEM leukemia
OVCAR-5 ovarian = tested on: OVCAR-5 ovarian
NCI-H23 lung = tested on: NCI-H23 lung
SNB-75 CNS = tested on: SNB-75 CNS
UO-31 renal = tested on: UO-31 renal
SF-268 CNS = tested on: SF-268 CNS
HT29 colon = tested on: HT29 colon
NCI/ADR-RES ovarian = tested on: NCI/ADR-RES ovarian

SMILES | TGI (K-562 leukemia) [µM] | TGI (IGROV1 ovarian) [µM] | TGI (HCT-116 colon) [µM] | TGI (CCRF-CEM leukemia) [µM] | TGI (OVCAR-5 ovarian) [µM] | TGI (NCI-H23 lung) [µM] | TGI (SNB-75 CNS) [µM] | TGI (UO-31 renal) [µM] | TGI (SF-268 CNS) [µM] | TGI (HT29 colon) [µM] | TGI (NCI/ADR-RES ovarian) [µM]
COc1cc2cc(C(=O)N3CC(COS(C)(=O)=O)c4ccc(NC(=O)OCc5ccccc5)cc43)[nH]c2c(OC)c1OC (configuration not stated) | > 100 | > 100 | > 100 | > 100 | > 100 | > 100 | > 100 | > 100 | > 100 | > 100 | > 100
C[C@@H]1[C@@H](C)C(c2ccccc2)O[Si]1(C(C)(C)C)C(C)(C)C (some centres not stated) | 63.6 | 31 | 28.8 | 46.2 | 31.4 | 30.3 | 29.9 | 31 | 61.2 | 31 | 33
C1=C(c2ccccc2)C(N2CCOCC2)Oc2ccccc21 (configuration not stated) | > 100 | > 100 | > 100 | > 100 | > 100 | > 100 | > 100 | > 100 | > 100 | > 100 | > 100
N#CC(CCN1CCC(Nc2ccccc2)(c2nnnn2C2CCCCC2)CC1)(c1ccccc1)c1ccccc1 | > 100 | > 100 | > 100 | > 100 | > 100 | > 100 | > 100 | > 100 | > 100 | > 100 | > 100
O=C1COc2cc(N3CCN(c4cccc(C(F)(F)F)c4)CC3)ccc2N1 | > 100 | > 100 | > 100 | > 100 | > 100 | > 100 | > 100 | > 100 | > 100 | > 100 | > 100
c1nc(NCCc2cnc[nH]2)c2[nH]cnc2n1 | > 100 | > 100 | > 100 | > 100 | > 100 | > 100 | > 100 | > 100 | > 100 | > 100 | > 100
Cc1c(C(=O)c2ccc(N)c3ccccc23)c2ccccc2n1CCN1CCOCC1 | > 90.6 | > 89.6 | 48.6 | > 100 | 98.2 | > 100 | 47.4 | 86.6 | > 88.5 | 72.5 | > 91.5
COc1cc(/C=C2\CC/C(=C\c3cc(OC)c(O)c(OC)c3)C2=O)cc(OC)c1O | 14.2 | 3.19 | > 23.2 | 23.1 | > 100 | 5.72 | 8.06 | > 26.7 | 36.5 | > 100 | 13.9
O=c1[nH]c(=O)n(C2CC(O)C(CO)O2)cc1Oc1ccccc1 (configuration not stated) | > 100 | > 100 | > 100 | > 100 | > 100 | > 100 | > 100 | > 100 | > 100 | > 100 | > 100
C1=NCCNCCNCCN=Cc2ccc(cc2)OCc2cccc(n2)COc2ccc1cc2 | > 100 | > 100 | > 100 | > 100 | > 100 | > 100 | > 100 | > 100 | > 100 | > 100 | > 100
Cc1ccc(S(=O)(=O)NC(CCC(=O)NNc2ccccc2)C(=O)NNc2ccccc2)cc1 (configuration not stated) | > 100 | > 100 | > 100 | > 100 | > 100 | > 100 | > 100 | > 100 | > 100 | > 100 | > 100
CC(C)(C)OC(=O)N/C(C=O)=C\C1CCCCC1 | 46.2 | 46 | 36 | > 100 | 42.3 | 62 | > 100 | 30.2 | 52.3 | 71.6 | 44.3
CCN1C/C(=C\c2ccc(Cl)cc2)c2nc(N)c(C#N)c(-c3ccc(Cl)cc3)c2C1 | > 100 | > 100 | > 100 | > 100 | > 100 | > 100 | > 100 | > 100 | > 100 | > 100 | > 100
CCCCc1ccc(Nc2ncc3ncn(COCCO)c3n2)cc1 | 52.7 | > 100 | 65.4 | 60.6 | > 100 | > 100 | 65.3 | 59.1 | > 100 | 50 | > 100
CC1CC[C@@]2(OC1)O[C@H]1[C@H](O)[C@H]3[C@@H]4CC[C@H]5C[C@@H](OC6OC(CO)C(OC7OC(CO)C(O)C(OC8OCC(O)C(O)C8O)C7OC7OC(CO)C(O)C(O)C7OC7OC(CO)C(O)C(O)C7O)C(O)C6O)[C@H](O)C[C@]5(C)[C@H]4CC[C@]3(C)[C@H]1[C@@H]2C (some centres not stated) | > 10 | > 10 | > 10 | 2.51 | > 10 | > 10 | > 10 | > 10 | > 10 | > 10 | > 10
Cc1cc(-n2nnc(C(=O)O)c2-c2ccccc2)c2ccc(Cl)cc2n1 | > 100 | > 100 | > 100 | > 100 | > 100 | > 100 | > 100 | > 100 | > 100 | > 100 | > 100
O=C1CCCNn2c(nc3ncccc3c2=O)N1 | > 100 | > 100 | > 100 | > 100 | > 100 | > 100 | > 100 | > 100 | > 100 | > 100 | > 100
COC(=O)C1CC2(C)C=CC1N(C(=O)OCc1ccccc1)C2 (configuration not stated) | > 100 | > 100 | > 100 | > 100 | > 100 | > 100 | > 100 | > 100 | > 100 | > 100 | > 100
C=C(C(=O)O[C@H]1C/C(C)=C/CC/C(CO)=C/[C@H]2C(=O)OC(=C)[C@H]12)C(O)CO (some centres not stated) | 14.8 | 39.5 | 19.6 | 4.92 | 33 | 32.7 | 34.9 | 27.6 | 39.6 | 38.7 | 48.4

SMILES | TGI (K-562 leukemia) [µM] | TGI (IGROV1 ovarian) [µM] | TGI (HCT-116 colon) [µM] | TGI (CCRF-CEM leukemia) [µM] | TGI (OVCAR-5 ovarian) [µM] | TGI (NCI-H23 lung) [µM] | TGI (SNB-75 CNS) [µM] | TGI (UO-31 renal) [µM] | TGI (SF-268 CNS) [µM] | TGI (HT29 colon) [µM] | TGI (NCI/ADR-RES ovarian) [µM]
COc1cc2ccc(C(=O)NCCCNC(=O)c3ccc4cc(OC)c(OC)cc4c3)cc2cc1OC | > 100 | > 100 | > 100 | > 100 | > 100 | > 100 | 95.8 | > 100 | > 100 | > 100 | > 100
N#Cc1c(-c2ccc(Cl)cc2)cc(-c2ccc(Nc3ccnc4cc(Cl)ccc34)cc2)[nH]c1=O | > 100 | > 100 | > 100 | 31.6 | > 100 | > 75.9 | > 100 | > 100 | > 100 | > 100 | > 100
COc1ccc(-n2c(=O)c3[nH]c(=S)[nH]c3n(-c3ccc(OC)cc3)c2=S)cc1 | > 100 | > 100 | > 100 | > 100 | > 100 | > 100 | > 100 | > 100 | > 100 | > 100 | > 100
CCOC(=O)/C(C(N)=O)=C(\O)C(=O)/C(Br)=C(\O)c1ccccc1 | 31.2 | 31.1 | 32 | 3.54 | 37.5 | 37.3 | 32.1 | 39.6 | 39.5 | > 70.8 | 72.9
CC(=O)n1cc(C2CC23N=C(c2ccccc2)OC3=O)c2ccccc21 (configuration not stated) | 77.6 | 38.3 | 27.9 | 7.86 | 49.7 | 42 | 39.6 | 30.9 | 46.3 | 39.9 | > 56
CC(C)(C)OC(=O)[C@@H]1CCC(=O)N1C1(c2ccccc2)c2ccccc2-c2ccccc21 | > 100 | > 100 | > 100 | 43.7 | > 100 | > 100 | > 100 | > 100 | > 100 | 90.1 | > 100
Cc1ccc(S(=O)(=O)NC(=O)NC(Cc2ccc(O)cc2)C(=O)O)cc1 (configuration not stated) | > 100 | > 100 | > 100 | > 100 | > 100 | > 100 | > 100 | > 100 | > 100 | > 100 | > 100
NNC(=O)Nc1nc2ccc(NN)cc2[nH]1 | 42.1 | > 100 | > 100 | 41.7 | > 100 | > 100 | 84.2 | > 100 | > 100 | > 100 | > 100
O=C(Nc1sccc1S(=O)(=O)c1ccc(Cl)cc1)c1ccc(F)cc1F | 38.6 | > 100 | > 100 | 37.8 | 81.3 | 54.9 | 38.8 | 47.7 | 42.7 | > 100 | > 100
C#C[C@]1(O)CC[C@H]2[C@@H]3CCC4=C/C(=N/NC(=O)c5cccc6c(=O)c7ccccc7[nH]c56)CCC4[C@H]3CC[C@@]21C (some centres not stated) | > 100 | > 100 | > 100 | > 100 | > 100 | > 100 | > 100 | 76.5 | > 100 | > 100 | > 100
C#CC[C@@]12CC(=O)C[C@@H]1CCC1(C2)OCCO1 (tested in a mixture with another compound) | > 100 | > 100 | > 100 | > 100 | > 100 | > 100 | > 100 | > 100 | > 100 | > 100 | > 100
COC(=O)c1ccccc1C1CN=NC12Cc1c(ccc3c1CCC3)C2=O (configuration not stated) | > 100 | > 100 | > 100 | > 100 | > 100 | > 100 | > 100 | > 100 | > 100 | > 100 | > 100
C(/C=N/NC1=NCCCCN1)=N\NC1=NCCCCN1 | > 100 | > 100 | > 100 | > 100 | > 100 | > 100 | > 100 | > 100 | > 100 | > 100 | > 100
COC(=O)[C@H](Cc1c[nH]c2ccccc12)NP(=O)(OCCC#N)OCC1OC(n2cc(C)c(=O)[nH]c2=O)CC1N=[N+]=[N-] (some centres not stated) | > 100 | > 100 | > 100 | > 100 | > 100 | > 100 | > 100 | > 100 | > 100 | > 100 | > 100
CCOC(=O)C1CC(C(=O)c2ccccc2)N2c3ccccc3-c3ccccc3C12 (configuration not stated) | > 100 | > 100 | > 100 | > 100 | > 100 | > 100 | > 100 | > 100 | > 100 | > 100 | > 100
Fc1cccc(F)c1C1SCc2nc3cc(Cl)c(Cl)cc3n21 (configuration not stated) | > 100 | > 100 | > 100 | > 100 | > 100 | > 100 | > 100 | > 100 | > 100 | > 100 | > 100
O=C1c2cc(Cc3ccccc3)c(=O)c(Cc3ccccc3)cc2C(=O)c2cc(Cc3ccccc3)c(=O)c(Cc3ccccc3)cc21 | > 100 | > 100 | > 100 | > 100 | > 100 | > 100 | > 100 | > 100 | > 100 | > 100 | > 100
Cn1cccc1-c1ccc(-c2ccc(CO)[se]2)[se]1 | > 100 | > 100 | > 100 | > 46.7 | > 100 | > 90 | 59.5 | 96.9 | > 100 | > 100 | > 81
